The values that follow come from US5436231A, “Adenophostins” (Sankyo Company, Limited, priority 1991, dated 1995).

Data set [1] deals with T1, rat cerebellar InsP3 receptors (Rattus norvegicus, UniProt P29994).
T1 construct: A rat cerebellar membrane fraction was homogenized; from tissue; host or cells: rat cerebellum, membrane fraction
Briefly: Inhibitory activity on [3H]-InsP3 binding to InsP3 receptors. The note with it: rat cerebellar membrane fraction; 10 nM [3H]-InsP3; 5 minutes, room temperature; pH 8.0; read-out: IC50 (concentration required to inhibit the binding of [3H]-InsP3 by 50%). The method, then:
(§1) Adenophostins A and B were characterized by their inhibitory activity on [^3 H]-InsP3 binding to rat cerebellar InsP3 receptors, and the ^45 Ca^++ releasing activity from the endoplasmic reticulum, which was prepared from rat cerebellum.
Inhibitory activity on [^3 -H]-InSP3 binding to InsP3 receptors
The inhibitory activity of [^3 H]-InsP3 binding was assayed according to the method of Worley et al. [J. Biol. Chem. 262, 12132-12136 (1987)].
A rat cerebellar membrane fraction was homogenized in 50 mM of Tris-HC1 (pH 8.0) and 1 mM of ethylenediaminetetraacetic acid, and the protein concentration in the homogenized material was adjusted to 0.6 mg/ml. 1 ml of this cerebellar homogenate was taken and 10 nM of [^3 H]-InsP3and either adenophostin A or adenophostin B were added to it. The mixture was incubated for 5 minutes at room temperature, and then centrifuged for 5 minutes at 12,000 rpm at a temperature of 4° C. The supernatant was removed and the precipitated cerebellar membrane fraction was dissolved in 5 ml of Pico-flow (a trade name for a product of Packard Co.) to determine its radioactivity. The bound [^3 H]-InsP3 was then determined.
IC50 indicates the concentration required to inhibit the binding of [^3 H]-InsP3 by 50%.

In data set [2] the test system is endoplasmic reticulum (microsome) of rat cerebellum. Briefly: 45Ca++ releasing activity from the endoplasmic reticulum. The class given is biochemical. Conditions: 1 minute after addition, 30° C., pH 7.2; for calcium ion released of that incorporated into the endoplasmic reticulum: compound at 10 nM. On the procedure:
as §1
^45 Ca^++ Releasing activity from the endoplasmic reticulum
The ^45 Ca^++ releasing activity from the endoplasmic reticulum was assayed using the method reported by Supattapone et al. [Proc. Natl, Acad. Sci. USA 85, 8747-8750 (1988)] with slight modifications.
The endoplasmic reticulum (microsome) of rat cerebellum was suspended in 10 mM of a HEPES-KOH buffer (pH 7.2) containing 100 mM of potassium chloride, 2.5 mM of magnesium chloride, 1 mM of dithiothreitol (DTT), 10 mM of creatine phosphate, creatine kinase (10 units/ml), 2 μg/ml of oligomycin, 50 μM of calcium chloride containing 1 μCi/ml of ^45 Ca, and 0.12 mM of ethylene glycol bis(2-aminoethyl ether)-N,N,N',N'-tetraacetic acid (EGTA), and the protein concentration in the suspension was adjusted to 0.5 mg/ml. 1 mM of adenosine triphosphate magnesium salt was added to 1 ml of this suspension, and the mixture was incubated for 11 minutes at 30° C. in order to incorporate the ^45 Ca^++ into the endoplasmic reticulum. InsP3, adenophostin A or adenophostin B was then added to release the incorporated ^45 Ca^++ from the endoplasmic reticulum. 10 minutes after the addition of the adenosine triphosphate magnesium salt (1 minute before the addition of the adenophostins or InsP3), and then 12 minutes after the addition of the adenosine triphosphate magnesium salt (1 minute after the addition of the adenophostins or InsP3), 100 μl of the reaction solution was removed, and the sampled solution was filtered through a Milipore filter (HA, […], Product of Milipore) to collect the. endoplasmic reticulum on the filter. The filter was washed with 4 ml of a 10 mM HEPES-KOH buffer (pH 7.2) containing 100 mM of potassium chloride and 1 mM of EGTA, and the radioactivity on the filter was determined by the addition of 5 ml of Pico-flow (a trade name for a product of Packard Co.) agents.

The nature of data set [3]: Solubility. In kind it is physicochemical. The note with it: for Solubility in lower alcohols: such as methanol or ethanol.

T1 sequence (P29994 whole entry): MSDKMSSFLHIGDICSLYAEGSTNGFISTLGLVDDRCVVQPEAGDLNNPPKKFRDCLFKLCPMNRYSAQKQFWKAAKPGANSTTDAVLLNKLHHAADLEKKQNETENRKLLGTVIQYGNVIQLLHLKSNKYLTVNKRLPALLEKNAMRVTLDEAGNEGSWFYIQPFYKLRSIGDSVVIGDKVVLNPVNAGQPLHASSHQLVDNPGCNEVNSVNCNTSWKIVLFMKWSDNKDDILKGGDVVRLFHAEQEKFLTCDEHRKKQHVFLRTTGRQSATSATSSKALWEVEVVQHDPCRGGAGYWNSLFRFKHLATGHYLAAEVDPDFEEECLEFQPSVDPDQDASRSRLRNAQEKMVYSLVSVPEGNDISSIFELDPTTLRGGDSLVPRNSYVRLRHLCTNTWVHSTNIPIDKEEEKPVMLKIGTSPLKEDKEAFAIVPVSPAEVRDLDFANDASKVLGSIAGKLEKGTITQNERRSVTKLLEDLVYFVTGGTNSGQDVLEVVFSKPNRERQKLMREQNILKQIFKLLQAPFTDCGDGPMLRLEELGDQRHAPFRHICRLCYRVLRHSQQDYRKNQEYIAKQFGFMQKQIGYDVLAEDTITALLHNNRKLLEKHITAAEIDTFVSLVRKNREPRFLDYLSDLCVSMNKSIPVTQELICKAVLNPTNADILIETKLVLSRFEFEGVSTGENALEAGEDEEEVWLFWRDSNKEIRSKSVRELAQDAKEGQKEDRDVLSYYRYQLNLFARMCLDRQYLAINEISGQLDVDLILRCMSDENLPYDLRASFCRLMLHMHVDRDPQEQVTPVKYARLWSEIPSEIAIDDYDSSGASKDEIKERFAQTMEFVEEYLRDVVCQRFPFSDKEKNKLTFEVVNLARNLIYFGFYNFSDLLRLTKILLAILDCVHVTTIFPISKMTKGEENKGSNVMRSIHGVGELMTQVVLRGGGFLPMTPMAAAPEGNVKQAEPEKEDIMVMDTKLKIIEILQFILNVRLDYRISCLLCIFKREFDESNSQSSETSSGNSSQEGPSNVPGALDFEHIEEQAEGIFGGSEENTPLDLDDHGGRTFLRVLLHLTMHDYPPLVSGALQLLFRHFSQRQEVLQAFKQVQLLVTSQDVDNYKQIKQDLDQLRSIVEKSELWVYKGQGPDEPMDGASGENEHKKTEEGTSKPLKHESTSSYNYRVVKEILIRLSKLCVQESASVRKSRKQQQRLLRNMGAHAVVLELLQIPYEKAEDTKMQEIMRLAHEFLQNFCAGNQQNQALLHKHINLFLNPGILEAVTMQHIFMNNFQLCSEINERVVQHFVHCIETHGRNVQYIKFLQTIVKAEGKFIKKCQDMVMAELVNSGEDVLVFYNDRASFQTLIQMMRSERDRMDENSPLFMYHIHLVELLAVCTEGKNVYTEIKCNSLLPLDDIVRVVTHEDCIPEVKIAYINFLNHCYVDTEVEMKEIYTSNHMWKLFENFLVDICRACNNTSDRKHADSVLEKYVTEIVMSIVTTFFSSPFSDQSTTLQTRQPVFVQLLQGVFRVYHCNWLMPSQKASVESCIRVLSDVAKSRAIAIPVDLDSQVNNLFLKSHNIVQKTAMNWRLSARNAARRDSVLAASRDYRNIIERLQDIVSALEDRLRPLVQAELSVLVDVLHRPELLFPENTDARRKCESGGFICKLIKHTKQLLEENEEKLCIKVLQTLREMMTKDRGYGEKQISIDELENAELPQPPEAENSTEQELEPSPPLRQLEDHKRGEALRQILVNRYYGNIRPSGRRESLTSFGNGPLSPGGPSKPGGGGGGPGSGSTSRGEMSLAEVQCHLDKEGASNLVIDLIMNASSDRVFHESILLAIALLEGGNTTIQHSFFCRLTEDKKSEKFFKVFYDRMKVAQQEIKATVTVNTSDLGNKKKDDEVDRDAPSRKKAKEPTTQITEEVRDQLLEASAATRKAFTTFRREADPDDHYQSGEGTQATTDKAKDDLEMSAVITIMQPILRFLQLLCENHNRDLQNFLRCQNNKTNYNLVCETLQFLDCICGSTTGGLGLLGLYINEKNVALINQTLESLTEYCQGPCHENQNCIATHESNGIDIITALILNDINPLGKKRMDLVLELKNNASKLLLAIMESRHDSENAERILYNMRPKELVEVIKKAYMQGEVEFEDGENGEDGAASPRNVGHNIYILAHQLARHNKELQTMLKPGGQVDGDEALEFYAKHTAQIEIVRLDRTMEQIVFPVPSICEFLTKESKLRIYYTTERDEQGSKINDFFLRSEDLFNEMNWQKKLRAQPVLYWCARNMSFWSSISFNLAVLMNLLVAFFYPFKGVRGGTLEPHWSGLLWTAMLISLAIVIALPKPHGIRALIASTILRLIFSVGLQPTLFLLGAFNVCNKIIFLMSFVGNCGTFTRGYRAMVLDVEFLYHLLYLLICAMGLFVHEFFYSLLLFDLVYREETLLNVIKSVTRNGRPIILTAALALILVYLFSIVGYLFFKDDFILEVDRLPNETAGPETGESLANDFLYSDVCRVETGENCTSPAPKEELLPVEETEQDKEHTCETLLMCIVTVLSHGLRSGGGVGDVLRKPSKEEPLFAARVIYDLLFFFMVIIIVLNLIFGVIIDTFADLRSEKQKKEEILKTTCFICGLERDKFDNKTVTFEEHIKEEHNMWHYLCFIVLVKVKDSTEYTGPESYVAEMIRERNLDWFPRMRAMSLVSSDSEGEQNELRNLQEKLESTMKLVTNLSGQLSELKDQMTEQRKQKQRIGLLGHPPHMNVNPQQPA

For `CC(=O)OC[C@H]1O[C@H](O[C@H]2[C@@H](OP(=O)(O)O)[C@H](n3cnc4c(N)ncnc43)O[C@@H]2CO)[C@H](O)[C@@H](OP(=O)(O)O)[C@@H]1OP(=O)(O)O` [adenophostin B], in data set [1], the IC50 was 8 nM. In data set [2], the “calcium ion released of that incorporated into the endoplasmic reticulum” value was 35%. Moreover, in data set [3], the “Solubility in acetone, ethyl acetate or chloroform” value was “insoluble”; the “Solubility in lower alcohols” value was “slightly soluble”; the “Solubility in water and dimethyl sulfoxide” value is given as “Soluble”.

In the case of `O=P(O)(O)O[C@@H]1[C@H](O)[C@H](O)[C@@H](OP(=O)(O)O)[C@H](OP(=O)(O)O)[C@H]1O` [InsP3, inositol 1,4,5-trisphosphate, reference compound], the “calcium ion released of that incorporated into the endoplasmic reticulum (adenophostin activities at 10 nM stated equal to that of InsP3)” value in data set [2] (InsP3 at 10 μM) was determined as 35%.

In the case of `Nc1ncnc2c1ncn2[C@@H]1O[C@H](CO)[C@@H](O[C@H]2O[C@H](CO)[C@@H](OP(=O)(O)O)[C@H](OP(=O)(O)O)[C@H]2O)[C@H]1OP(=O)(O)O` [adenophostin A], the IC50 in data set [1] stood at 6 nM. Further, in data set [2], the “calcium ion released of that incorporated into the endoplasmic reticulum” value is listed as 35%. Moreover, in data set [3], the “Solubility in acetone, ethyl acetate or chloroform” value is reported as “insoluble”; the “Solubility in lower alcohols” value is “slightly soluble”; the “Solubility in water and dimethyl sulfoxide” value is reported as “Soluble”.
